Data on 84 molecules can be found in the RepoRT retention time repository.

The nature of the data set: HILIC, Waters ACQUITY UPLC BEH HILIC, 150 × 2.1 mm, 1.7 µm, 40 °C, 0.6 mL/min, estimated dead time 0.55 min; A: water + 0.1% formic acid + 20 mM ammonium formate, pH 3.5; B: acetonitrile + 0.1% formic acid, pH 3; gradient (min/%B) 0/95 0.1/95 4.6/80 5.5/50 7.0/50 7.1/95 7.2/95 7.3/95 7.4/95 7.5/95 7.6/95 7.7/95 7.8/95 12.50/95 12.65/95. The conditions noted are these: stereoisomer not certain.
Turning to `CC(=O)NC(CCCCN)C(=O)O` [N-alpha-acetyl-L-lysine], the LC retention time is 5.44 min.

As for `CCCCC(=O)OC(CC(=O)[O-])C[N+](C)(C)C` (centres undefined) [Valerylcarnitine], the LC retention time was 4.39 min.

Consider `CN(CC(=O)O)C(=N)N` [Creatine], for which the LC retention time was 5.06 min.

For `CC(=O)NCCCC[C@H](N)C(=O)O` [N6-Acetyl-L-lysine], the LC retention time was 5.44 min.

Consider `NCCc1c[nH]c2ccccc12` [Tryptamine], for which the LC retention time was 2.79 min.

In the case of `CC(=O)NCCCNCCCCNCCCNC(C)=O` [N1,N12-Diacetylspermine], the LC retention time was 6.1 min.

Turning to `Cn1cnc2c(ncn2C2OC(CO)C(O)C2O)c1=O` (centres undefined) [N1-Methylinosine], the LC retention time is 1.44 min.

In the case of `NC(N)=NCCCC(=O)O` [4-Guanidinobutanoic acid], the LC retention time was 3.84 min.

Take `CN(C)c1nc2c(ncn2C2OC(CO)C(O)C2O)c(=O)[nH]1` (centres undefined) [N2,N2-Dimethylguanosine]: the LC retention time is 1.9 min.

For the molecule `CC(O)CC(=O)OC(CC(=O)[O-])C[N+](C)(C)C` (centres undefined) [3-Hydroxybutyrylcarnitine CAR(4:0-OH)], the LC retention time was 5.4 min.

`Cn1cnc2nc(N)[nH]c(=O)c21` [7-Methylguanine]: the LC retention time is 2.19 min.

Turning to `C[n+]1cccc(C(=O)[O-])c1` [Trigonelline], the LC retention time is 4.85 min.

Consider `CC(CCC(=O)NCCS(=O)(=O)O)C1CCC2C3C(O)CC4CC(O)CCC4(C)C3CCC12C` (centres undefined) [Tauroursodeoxycholic acid], for which the LC retention time was 1.75 min.

For `C[n+]1cccc(C(N)=O)c1` [1-Methylnicotinamide], the LC retention time is 4.08 min.

Take `CCCCCC(=O)OC(CC(=O)[O-])C[N+](C)(C)C` (centres undefined) [Hexanoylcarnitine CAR(6:0)]: the LC retention time was 4.34 min.

For the molecule `CC(CCC(=O)NCC(=O)O)C1CCC2C3C(O)CC4CC(O)CCC4(C)C3CC(O)C12C` (centres undefined) [Glycocholic Acid], the LC retention time was 2.87 min.

For `CCCCCCCC(=O)OC(CC(=O)[O-])C[N+](C)(C)C` (centres undefined) [Octanoylcarnitine CAR(C8:0)], the LC retention time is 4.13 min.

`CC(CCC(=O)NCCS(=O)(=O)O)C1CCC2C3CCC4CC(O)CCC4(C)C3CC(O)C12C` (centres undefined) [Taurodeoxycholic Acid]: the LC retention time is 1.81 min.

As for `NC(Cc1cnc[nH]1)C(=O)O` (centres undefined) [Histidine], the LC retention time was 6.15 min.

As to `CCCCCCCCCC(=O)OC(CC(=O)[O-])C[N+](C)(C)C` (centres undefined) [Decanoylcarnitine CAR(10:0)], the LC retention time is 3.92 min.

Regarding `CSCCC(N)C(=O)O` (centres undefined) [Methionine], the LC retention time is 4.11 min.

In the case of `NC(Cc1c[nH]c2ccccc12)C(=O)O` (centres undefined) [Tryptophan], the LC retention time was 3.82 min.

Take `Nc1ccnc(=O)[nH]1` [Cytosine]: the LC retention time is 2.39 min.

For the molecule `Cn1c[n+](C2OC(CO)C(O)C2O)c2nc(N)[nH]c(=O)c21` (centres undefined) [7-Methylguanosine], the LC retention time is 1.97 min.

As for `C[N+](C)(C)CCCCC(N)C(=O)[O-]` [N6,N6,N6-Trimethyl-L-lysine], the LC retention time is 6.16 min.

Turning to `CN(C)C(=N)N=C(N)N` [1,1-Dimethylbiguanide (Metformin)], the LC retention time is 3.42 min.

Turning to `O=C(O)CNC(=O)c1ccccc1` [Hippuric acid], the LC retention time is 1.16 min.

`CC(=O)N[C@@H]1C(O)O[C@H](CO)[C@@H](O)[C@@H]1O` (stereo partly drawn) [N-Acetyl-D-mannosamine]: the LC retention time is 1.81 min.

Consider `CC(=O)NCCCNCCCC(=O)O` [N-Acetylisoputreanine], for which the LC retention time was 4.93 min.

As to `CC(=O)NCCCCN` [N-Acetylputrescine], the LC retention time was 4.4 min.

For the molecule `NC(N)=NCCCC(N)C(=O)O` (centres undefined) [Arginine], the LC retention time is 5.92 min.

As to `O=c1[nH]cnc2c1ncn2C1OC(CO)C(O)C1O` (centres undefined) [Inosine], the LC retention time is 1.61 min.

`NC(=O)c1ccc[n+]([O-])c1` [Nicotinamide N-oxide]: the LC retention time was 2.02 min.

`Cn1c(=O)[nH]c2ncn(C)c2c1=O` [Paraxanthine]: the LC retention time is 0.948 min.

Regarding `Cc1ncc(C[n+]2csc(CCO)c2C)c(N)n1` [Thiamine], the LC retention time is 5.49 min.

Regarding `Cn1ccc(=O)c(C(N)=O)c1` [N1-methyl-4-pyridone-3-carboxamide], the LC retention time is 1.5 min.

For `Cn1cncc1CC(NC(=O)CCN)C(=O)O` (centres undefined) [Anserine], the LC retention time was 6.1 min.

Turning to `O=C(O)C1CCCN1` (centres undefined) [Proline], the LC retention time is 4.46 min.

On to `Cn1cc(C(N)=O)ccc1=O` [N1-methyl-2-pyridone-5-carboxamide], for which the LC retention time was 1.24 min.

In the case of `C[N+](C)(C)CC(O)(CC(=O)[O-])C(=O)Cc1ccccc1` (centres undefined) [Phenylacetyl carnitine], the LC retention time was 4.47 min.

Turning to `CC(=O)NCCCNCCCCN` [N1-Acetylspermidine], the LC retention time was 5.99 min.

Consider `O=c1[nH]c(=O)c2[nH]cnc2[nH]1` [Xanthine], for which the LC retention time is 1.15 min.

With `CC(=O)Nc1ccn(C2OC(CO)C(O)C2O)c(=O)n1` (centres undefined) [N4-Acetylcytidine], the LC retention time was 1.27 min.

On to `NC(=O)NCCCC(N)C(=O)O` (centres undefined) [Citrulline], for which the LC retention time was 5.74 min.

With `CCCC(=O)OC(CC(=O)[O-])C[N+](C)(C)C` (centres undefined) [Butyrylcarnitine], the LC retention time is 4.69 min.

Take `CN1C(=O)CCC1c1ccc[n+]([O-])c1` (centres undefined) [Cotinine N-oxide]: the LC retention time was 2.87 min.

As to `NC(N)=NCCCCC(N)C(=O)O` (centres undefined) [Homoarginine], the LC retention time is 5.92 min.

For the molecule `Nc1c(O)cccc1C(=O)O` [3-Hydroxyanthranilic acid], the LC retention time was 0.69 min.

As to `Cn1c(=O)c2c(ncn2C)n(C)c1=O` [Caffeine], the LC retention time is 0.85 min.

For `C[N+](C)(C)CC(=O)[O-]` [Betaine], the LC retention time was 4.78 min.

For the molecule `Nc1ncnc2c1ncn2C1OC(CO)C(O)C1O` (centres undefined) [Adenosine], the LC retention time was 1.75 min.

Turning to `NC(=O)CCC(N)C(=O)O` (centres undefined) [Glutamine], the LC retention time was 5.06 min.

For the molecule `CN1C(=O)CCC1c1cccnc1` (centres undefined) [Cotinine], the LC retention time is 1.4 min.

`NC(Cc1ccc(OS(=O)(=O)O)cc1)C(=O)O` (centres undefined) [O-Sulfotyrosine]: the LC retention time was 3.2 min.

As to `NCCc1ccc(OS(=O)(=O)O)c(O)c1` [Dopamine-4-O-sulfate], the LC retention time was 1.07 min.

`NCCc1ccc(O)c(OS(=O)(=O)O)c1` [Dopamine-3-O-sulfate]: the LC retention time is 1.07 min.

Regarding `O=C(O)C1CCCCN1` (centres undefined) [Pipecolic acid], the LC retention time is 4.48 min.

For the molecule `O=c1[nH]cc(C2OC(CO)C(O)C2O)c(=O)[nH]1` (centres undefined) [Pseudouridine], the LC retention time was 1.25 min.

Consider `O=C(O)[C@@H]1CCCN1C(=O)[C@@H]1CCCN1` [L-prolyl-L-proline], for which the LC retention time was 5.4 min.

As to `CC(CCC(=O)NCC(=O)O)C1CCC2C3CCC4CC(O)CCC4(C)C3CCC12C` (centres undefined) [Glycolithocholic acid], the LC retention time is 1.22 min.

As for `CC(CCC(=O)NCC(=O)O)C1CCC2C3CCC4CC(O)CCC4(C)C3CC(O)C12C` (centres undefined) [Glycodeoxycholic acid], the LC retention time is 1.96 min.

As for `C[N+](C)(C)CCOP(=O)([O-])OCC(O)CO` (centres undefined) [a-Glycerophosphocholine], the LC retention time is 6.02 min.

Consider `Nc1nc2nc[nH]c2c(=O)[nH]1` [Guanine], for which the LC retention time was 2.17 min.

`CC(C)C(=O)OC(CC(=O)[O-])C[N+](C)(C)C` (centres undefined) [Isobutyrylcarnitine]: the LC retention time is 4.69 min.

On to `NC(Cc1ccccc1)C(=O)O` (centres undefined) [Phenylalanine], for which the LC retention time is 3.78 min.

On to `NCCCCC(N)C(=O)O` (centres undefined) [Lysine], for which the LC retention time was 5.98 min.

In the case of `CN1CCCCC1C(=O)O` (centres undefined), the LC retention time is 4.59 min.

In the case of `CC(=O)OC(CC(=O)[O-])C[N+](C)(C)C` [L-Acetylcarnitine CAR(2:0)], the LC retention time was 5.03 min.

As to `C[N+](C)(C)CCO` [Choline], the LC retention time is 3.97 min.

Consider `Cn1c(N)nc2c(ncn2C2OC(CO)C(O)C2O)c1=O` (centres undefined) [1-Methylguanosine], for which the LC retention time is 1.73 min.

Regarding `C[N+](C)(C)CC(CC(=O)[O-])OC(=O)c1ccccc1` (centres undefined) [Benzoylcarnitine], the LC retention time is 4.45 min.

Consider `CCCCCC=CC(=O)OC(CC(=O)[O-])C[N+](C)(C)C` (centres undefined) [2-Octenoylcarnitine CAR(8:1)], for which the LC retention time is 4.2 min.

For the molecule `C[N+]1(C)CCCC1C(=O)[O-]` (centres undefined) [Proline Betaine], the LC retention time is 4.91 min.

For `CSCC1OC(n2cnc3c(N)ncnc32)C(O)C1O` (centres undefined) [5'-Methylthioadenosine], the LC retention time was 1.3 min.

Take `O=C(O)C=Cc1cnc[nH]1` [Urocanic acid]: the LC retention time was 1.3 min.

With `CC(C)CC(=O)OC(CC(=O)[O-])C[N+](C)(C)C` (centres undefined) [Isovalerylcarnitine], the LC retention time is 4.39 min.

For the molecule `CC(=O)Nc1ccc(O)cc1` [Acetaminophen], the LC retention time was 0.71 min.

Consider `CC(N)C(=O)O` (centres undefined) [Alanine], for which the LC retention time is 4.57 min.

Take `CNc1ncnc2c1ncn2C1OC(CO)C(O)C1O` (centres undefined) [N6-Methyladenosine]: the LC retention time was 1.43 min.

Consider `C[n+]1ccccc1` [N-Methylpyridinium], for which the LC retention time is 3.82 min.

As to `CN(C)CC(=O)O` [N,N-Dimethylglycine], the LC retention time was 4.64 min.

Consider `CC(=O)NCCCN1CCCC1=O` [N-Acetylisoputreanine-gamma-lactam], for which the LC retention time is 1.83 min.

Consider `CCC(C)C(=O)OC(CC(=O)[O-])C[N+](C)(C)C` (centres undefined) [2-methylbutyrylcarnitine], for which the LC retention time is 4.39 min.

Regarding `CC(CCC(=O)NCC(=O)O)C1CCC2C3C(O)CC4CC(O)CCC4(C)C3CCC12C` (centres undefined) [Glycoursodeoxycholic acid], the LC retention time was 1.85 min.
